Test results from ChEMBL document CHEMBL3507680, “University of Dundee, Gates Library screen for HepG2 cell viability”.

Assay: Human HepG2 cell viability assay in 384 well format
Format: toxicity, cell-based
Set-up: dose 125 nL, time 70.5 hour; concentration not given beside the values
Conditions: HepG2 cells, read-out: Inhibition

Row | SMILES | cytotoxicity at 70.5 h [%]
1 | Cc1ccc(N2CC[C@H]3OCC[C@@]3(C(=O)N(C)C)C2)nn1 | -8.34
2 | CCN1CCC2(COCc3c(C)nc(N(C)C)nc32)C1 (configuration not stated) | -8.16
3 | CC(C)CN1C(=O)C2(CCN(Cc3ccc(F)cc3)C2)c2ccccc21 (configuration not stated) | -0.325
4 | COCc1cncc2c1CCN(Cc1cccnc1)C2 | -3.24
5 | COCCO[C@H]1CCN(c2ccc(C)nn2)[C@H]1Cc1cnn(C)c1 | -3.27
6 | CC(=O)NCC(=O)N1CCOC2(CCCN(c3ccc(C)nn3)C2)C1 (configuration not stated) | -11.9
7 | CN1CCN(C(=O)[C@H]2C[C@H]3[C@H](CCN3Cc3nccs3)O2)CC1 | -10.8
8 | CC(=O)N1CC(=O)N(c2cnn(C)c2)CC12CCN(Cc1ccco1)C2 (configuration not stated) | -16.8
9 | Cc1nocc1C(=O)N1CCc2c(CN(C)C)nn(C)c2C1 | -13.6
10 | CC(C)(C)C(=O)N1CC[C@@H]2[C@H](CC1)N(S(C)(=O)=O)CCS2(=O)=O | -10.7
11 | Cc1cccc(NC(=O)N2CCC3(CC(=O)N(c4ccsc4)C3)C2)c1 (configuration not stated) | -5.62
12 | CNC(=O)CN1CCOCC2(CCCN(Cc3ccoc3)C2)C1 (configuration not stated) | -8.87
13 | CC(=O)N1CC(=O)N(c2ccsc2)CC12CCN(Cc1ccoc1)C2 (configuration not stated) | -11.1
14 | CN1CCN(C(=O)[C@H]2CC[C@@H]3[C@@H](CCN3Cc3nccs3)O2)CC1 | -13.2
15 | O=C(NC1CCCC1)C1Cc2nc(-c3ccsc3)sc2N1CC1CC1 (configuration not stated) | 9.52
16 | O=C(Cn1ccc2ccccc21)NCc1ccc(C(=O)O)cc1 | -10.6
17 | COc1cc(OC)c(C2SCC(=O)Nc3n[nH]cc32)cc1OC (configuration not stated) | -1.01
18 | Cc1cccnc1NC(=O)CC1(Cn2cnnn2)CCCCC1 | -7.45
19 | O=C(COc1coc(CN2CCCCCC2)cc1=O)c1ccccc1 | 25.4
20 | Cc1cccn2c(=O)cc(OC(=O)c3ccccc3)nc12 | -17.1
21 | O=C1N(Cc2cccnc2)CCC12CCCNC2 (configuration not stated) | 10.6
22 | CS(=O)(=O)N1Cc2ccccc2C2(CCN(C(=O)c3ccno3)CC2)C1 | 7.95
23 | COCCN1C[C@@H]2CN(C(=O)[C@H]3CCCO3)C[C@@H]2C1=O | -15.9
24 | CC(=O)N1[C@@H](C(=O)NCC2CC2)C[C@@H]2CN(Cc3ccco3)C[C@@H]21 | 0.192
25 | COC1CC2(CCN(Cc3ccc4c(c3)OCO4)CC2)C1 | -12.6
26 | CCN1C(=O)CCCC12CCCN(C(=O)c1conc1C)C2 (configuration not stated) | -12.9

Row | SMILES | cytotoxicity at 70.5 h [%]
27 | O=C(Nc1ccccc1)C1=CC2(CCNCC2)c2ccccc21 | 3.63
28 | O=C(NC1CC1)c1ccc2ccc(N3CCN(CC4CC4)CC3)n2c1 | 6.77
29 | O=C(c1cccs1)N1CC[C@H](O)[C@@H]1Cc1ccccc1 | 29.4
30 | O=C1CC(c2ccccc2)C2(CCN(Cc3ccccn3)CC2)N1 (configuration not stated) | -7.79
31 | CN(CC1CC1)c1ccc2ccc(C(=O)NCCN3CCOCC3)cn12 | -5.52
32 | CCOc1ccc(Cl)cc1C1CCCN1 (configuration not stated) | -16.4
33 | NC(=O)N1CC2(CCNCC2)c2cc(Cl)ccc21 | -0.465
34 | CN(C)c1ncc(-c2cc(C(=O)NCCO)n(CC3CC3)c2)cn1 | -6
35 | CCCS(=O)(=O)N1C[C@@H](Oc2ncccc2F)[C@H]2OCCC[C@H]21 | -10.6
36 | O=C(NCC1CC1)[C@@H]1CCO[C@@H]2CCN(CCc3ccccc3)C[C@H]21 | -5.09
37 | CN(C)C(=O)[C@@H]1C[C@@H]2[C@@H](CCN2Cc2nccs2)O1 | -5.24
38 | CC1=N[C@@]2(CC[C@@H]3CN(Cc4ccc(C)cc4)C[C@@H]32)C(=O)N1CC1CC1 | -12.4
39 | O=C(c1cnccn1)N1CCOC2(CCCN(c3ncccc3F)C2)C1 (configuration not stated) | -16.1
40 | O=C(CC1CCCC1)N1C[C@H](Oc2cccnc2)[C@H]2OCCC[C@H]21 | -16.9
41 | O=C([C@H]1CCCO1)N1CCOC2(CCCN(c3ncccc3F)C2)C1 (some centres not stated) | -15.7
42 | CO[C@H]1CN(C(=O)c2cccnc2)[C@@H]2CCCO[C@H]12 | -11.9
43 | COCC1Cn2nnc(-c3cnn(C)c3)c2CN1Cc1cccs1 (configuration not stated) | -12.1
44 | CO[C@H]1CC[C@H]2[C@H]1OCCN2Cc1ccc(F)cc1 | 9.89
45 | O=C(Nc1cccnc1)C1Cc2nc(-c3ccsc3)sc2N1CC1CC1 (configuration not stated) | 15.3
46 | Cc1ccccc1C(=O)N1C[C@@H]2OCCN(c3ncccn3)[C@@H]2C1 | 17.4
47 | CC(C)C(=O)N1CCC[C@]2(C(=O)N(C)C)CN(c3ccccn3)C[C@@H]2C1 | 11.4
48 | COc1cc(N2CC[C@@H]3O[C@H](C(=O)N(C)C)C[C@@H]32)ncn1 | -17.2
49 | CCC(=O)N1CCC[C@]2(C(=O)N(C)C)CN(c3ccccn3)C[C@@H]2C1 | -9.46
50 | COc1ccc(C[C@H]2CN(C(=O)c3ccncc3)CC[C@@H]2OC)cc1 | 18.8
51 | C[C@@H]1CN(C(=O)c2cccs2)C[C@]12CCN(CCN(C)C)C2=O | 21.2
52 | O=C1CCCN1Cc1nnc2n1CCN(Cc1ccoc1)CC2 | 30

Row | SMILES | cytotoxicity at 70.5 h [%]
53 | CC[C@@H]1N(Cc2ccsc2)CCC[C@]12CCC(=O)N2C | 18.9
54 | CNC(=O)CN1CCCC12CCN(C(=O)c1ccc(F)cc1)CC2 | -11
55 | CCOC1COC2(CCN(Cc3cccc(F)c3)CC2)C1 (configuration not stated) | -12
56 | CC[C@@H]1N(Cc2ccsc2)CCC[C@]12CCC(=O)N2CCOC | -17.5
57 | COc1ccc(C[C@H]2CN(C(=O)CN(C)C)CC[C@H]2OC)cc1 | -6.67
58 | c1ccc(N2CCCC3(CCN(Cc4cccs4)C3)C2)nc1 (configuration not stated) | 33.5
59 | CN(C)CCN1CCC2(CCN(C(=O)c3ccc(F)cc3)CC2)C1=O | -8.17
60 | O=C(C1CCCCC1)N1CCC2(CCCN2CC2CC2)CC1 | -2.81
61 | CN(C)C(=O)CN1C(=O)CCC12CCN(Cc1ccc(F)cc1)CC2 | 5.3
62 | CC(C)N(C)Cc1cnc2n1CCN(Cc1ccco1)C2 | -14
63 | CNC(=O)CN1CCOCC2(CCCN(CCc3ccccc3)C2)C1 (configuration not stated) | -10.9
64 | CCN1CCn2c(C)cnc2C12CCN(C(=O)C(C)C)CC2 | -15.2
65 | CN(C)C(=O)COCc1cncc2c1CCN(Cc1ccccn1)C2 | -7.2
66 | CNC(=O)CN1CCOCC2(CCCN(Cc3ccc(F)cc3)C2)C1 (configuration not stated) | -9.75
67 | Cc1nc(CN2CCC3(CCN(Cc4cnn(C)c4)CC3)C2=O)cs1 | 10.4
68 | CCOCC1c2c(cnn2CC2CC2)CCN1Cc1nccs1 (configuration not stated) | -9.55
69 | CN(Cc1ccco1)C1COC2(CCN(Cc3nccs3)CC2)C1 (configuration not stated) | -21.8
70 | c1cncc(OCC2CN(Cc3nccs3)Cc3nccn3C2)c1 (configuration not stated) | -15.5
71 | Cc1nc(CN2CCC3(CCCN(Cc4ccoc4)C3)C2=O)cs1 (configuration not stated) | 11.4
72 | O=C(c1cccnc1)N1Cc2nccn2CC(COc2cccnc2)C1 (configuration not stated) | -15.2
73 | C[C@@H]1CN(Cc2ccsc2)C[C@]12CCN(Cc1cccnc1)C2=O | 39
74 | c1ccc(CN2CCc3c(COCC4CC4)cncc3C2)nc1 | -11.4
75 | CN(C)CCOCc1cncc2c1CCN(Cc1ccccn1)C2 | -10.9
76 | O=C(CN(C1=NCCCC1)c1ccccc1)c1ccccc1 | 25.2
77 | CCOc1ccc(N(CC(=O)c2ccccc2)C2=NCCCCC2)cc1 | -9.89
